Test results reported in PMC11188305, “Reproductive and fetal toxicity studies of histamine H3 receptor antagonist DL76 used in mice to prevent maximal electroshock-induced seizure” (Frontiers in Pharmacology, 2024).

System: C57/B6 mouse embryos
Experiment: Reproductive studies: maternal, fetal and gross/visceral malformation observations after treatment on GD-8 or GD-13
Type: in vivo
Details: for Number of female embryos / Number of male embryos: number (percentage); for Exomphalos / Eye open / Kinky tail / Left/right kidney hypo/descended / Mandible hypoplasia / Maxilla hypoplasia / Microtia/low set microtia / Undescended testis: number of embryos (percentage); for Live fetus/litter / Resorption/litter: parentheses contain percentages; for Placental weight, IUGR −2SD: fraction (percentage); for Fetal weight, IUGR −1SD / Fetal weight, IUGR −2SD: fraction of fetuses (percentage)
Procedure: Reproductive studies were conducted in adult female mice, averaging 30 gm in weight and 6 weeks in age ([Padmanabhan et al., 2006]; [Bastaki et al., 2018]). Following successful mating, indicated by vaginal plug observation, the plug-positive day was considered gestation day 0 (GD-0). DL76 was administered at various doses (7.5 mg/kg, 15 mg/kg, 30 mg/kg, and 60 mg/kg) through single i.p. injections and three 15 mg/kg injections in 1 day to mouse groups on GD-8 and GD-13 (Tables 1, 2). The control group was injected with normal saline. Appropriate formation of different organs occurs in specific periods of the development of the mouse. These two periods were selected because GD-8 is known to be a critical period for the induction of neural tube defects, craniofacial malformations, and the development of other organs, whereas on GD-13, the retina and other parts are being formed, and most other organs have been formed. The number of implantations, fetal deaths, and resorptions was recorded. Fetal and placental weights were documented separately. After blotting dry, the fetuses were weighed and fixed in 95% ethanol. The reproductive toxicological effects of DL76 were assessed by observing gross and visceral malformations, following [Sterz and Lehmann (1985)], [Abdulrazzaq et al. (1997)], [Padmanabhan et al. (2003)], and [Padmanabhan et al. (2006)].
Deformities of the embryos were identified according to a modified method of [Sterz and Lehmann (1985)], [Abdulrazzaq et al. (1997)], and [Bass et al. (2020)]. Accordingly, the embryos were removed from the 95% ethanol, and the lower part of the abdomen was cut using a razor blade. All organs were checked for abnormalities with a stereo dissecting microscope, and finally, the organs were removed by using forceps.
Statistical analyses employed SPSS 26.0 (IBM Middle East, Dubai, UAE). Data were presented as means ± SEM. […] Fetal abnormality data were presented as counts and percentages. Fisher’s exact test compared the percentages of abnormalities between the control group (saline) and the different dose groups. All tests were two-tailed, and significance was set at p < 0.05.

CC(C)(C)c1ccc(OCCCN2CCCCC2)cc1 [DL76, 1-(3-(4-tert-butyl-phenoxy)propyl) piperidine]
Number of female embryos (30 mg/kg i.p. on GD-13): 24 (55.8) | Number of male embryos (30 mg/kg i.p. on GD-13): 19 (44.2) | Exomphalos (30 mg/kg i.p. on GD-13): 1 (2.3) | Eye open (30 mg/kg i.p. on GD-13): 0 | Kinky tail (30 mg/kg i.p. on GD-13): 0 | Left/right kidney hypo/descended (30 mg/kg i.p. on GD-13): 1 (2.3) | Mandible hypoplasia (30 mg/kg i.p. on GD-13): 3 (7.0) | Maxilla hypoplasia (30 mg/kg i.p. on GD-13): 2 (4.7) | Microtia/low set microtia (30 mg/kg i.p. on GD-13): 1 (2.3) | Undescended testis (30 mg/kg i.p. on GD-13): 0 | Live fetus/litter (30 mg/kg i.p. on GD-13): 6.143 (87.76) | Resorption/litter (30 mg/kg i.p. on GD-13): .857 (12.24) | Fetal weight/Litter (g) (Mean ± SD) (60 mg/kg i.p. on GD-8): 1.048 ± .0156 g | Fetuses/litter (60 mg/kg i.p. on GD-8): 7.286 ± 1.380 | Placental weight/Litter (g) (mean ± SD) (60 mg/kg i.p. on GD-8): 0.101 ± 0.010 g | Placental weight, IUGR −2SD (60 mg/kg i.p. on GD-8): 0 | Fetal weight, IUGR −1SD (60 mg/kg i.p. on GD-8): 0 | Number of female embryos (60 mg/kg i.p. on GD-8): 21 (45.7) | Number of male embryos (60 mg/kg i.p. on GD-8): 25 (54.3) | Exomphalos (60 mg/kg i.p. on GD-8): 0 | Eye open (60 mg/kg i.p. on GD-8): 1 (2.2) | Kinky tail (60 mg/kg i.p. on GD-8): 0 | Left/right kidney hypo/descended (60 mg/kg i.p. on GD-8): 2 (4.3) | Mandible hypoplasia (60 mg/kg i.p. on GD-8): 4 (8.7) | Maxilla hypoplasia (60 mg/kg i.p. on GD-8): 2 (4.3) | Microtia/low set microtia (60 mg/kg i.p. on GD-8): 2 (4.3) | Undescended testis (60 mg/kg i.p. on GD-8): 0 | Live fetus/litter (60 mg/kg i.p. on GD-8): 6.571 (90.20) | Resorption/litter (60 mg/kg i.p. on GD-8): 0.714 (9.80) | Fetal weight Litter (g) (Mean ± SD) (60 mg/kg i.p. on GD-13): 1.051 ± 0.122 g | Fetuses/litter (60 mg/kg i.p. on GD-13): 7.000 ± 1.414 | Placental weight/Litter (g) (mean ± SD) (60 mg/kg i.p. on GD-13): 0.097 ± 0.010 g | Fetal weight, IUGR −1SD (60 mg/kg i.p. on GD-13): 0 | Fetal weight, IUGR −2SD (60 mg/kg i.p. on GD-13): 0 | Number of female embryos (60 mg/kg i.p. on GD-13): 17 (53.1) | Number of male embryos (60 mg/kg i.p. on GD-13): 15 (46.9) | Exomphalos (60 mg/kg i.p. on GD-13): 0 | Eye open (60 mg/kg i.p. on GD-13): 2 (6.3) | Kinky tail (60 mg/kg i.p. on GD-13): 0 | Left/right kidney hypo/descended (60 mg/kg i.p. on GD-13): 2 (6.3) | Mandible hypoplasia (60 mg/kg i.p. on GD-13): 2 (6.3) | Maxilla hypoplasia (60 mg/kg i.p. on GD-13): 2 (6.3) | Microtia/low set microtia (60 mg/kg i.p. on GD-13): 2 (6.3) | Undescended testis (60 mg/kg i.p. on GD-13): 2 (6.3) | Live fetus/litter (60 mg/kg i.p. on GD-13): 5.333 (76.19) | Resorption/litter (60 mg/kg i.p. on GD-13): 1.667 (23.81) | Fetal weight/Litter (g) (Mean ± SD) (3 × 15-dose i.p. on GD-8): 1.037 ± 0.101 g | Fetuses/litter (3 × 15-dose i.p. on GD-8): 8.143 ± 0.690 | Placental weight/Litter (g) (mean ± SD) (3 × 15-dose i.p. on GD-8): 0.092 ± 0.007 g | Placental weight, IUGR −2SD (3 × 15-dose i.p. on GD-8): 0 | Fetal weight, IUGR −2SD (3 × 15-dose i.p. on GD-8): 0 | Number of female embryos (3 × 15-dose i.p. on GD-8): 24 (51.1) | Number of male embryos (3 × 15-dose i.p. on GD-8): 23 (48.9) | Exomphalos (3 × 15-dose i.p. on GD-8): 0 | Eye open (3 × 15-dose i.p. on GD-8): 4 (8.5) | Kinky tail (3 × 15-dose i.p. on GD-8): 0 | Left/right kidney hypo/descended (3 × 15-dose i.p. on GD-8): 2 (4.3) | Mandible hypoplasia (3 × 15-dose i.p. on GD-8): 3 (6.4) | Maxilla hypoplasia (3 × 15-dose i.p. on GD-8): 2 (4.3) | Microtia/low set microtia (3 × 15-dose i.p. on GD-8): 2 (4.3) | Undescended testis (3 × 15-dose i.p. on GD-8): 1 (2.1) | Live fetus/litter (3 × 15-dose i.p. on GD-8): 6.714 (82.46) | Resorption/litter (3 × 15-dose i.p. on GD-8): 1.429 (17.54) | Fetal weight Litter (g) (Mean ± SD) (3 × 15-dose i.p. on GD-13): 1.051 ± 0.031 g | Fetuses/litter (3 × 15-dose i.p. on GD-13): 8.286 ± 1.704 | Placental weight/Litter (g) (mean ± SD) (3 × 15-dose i.p. on GD-13): 0.110 ± 0.012 g | Placental weight, IUGR −2SD (3 × 15-dose i.p. on GD-13): 0 | Fetal weight, IUGR −1SD (3 × 15-dose i.p. on GD-13): 0 | Fetal weight, IUGR −2SD (3 × 15-dose i.p. on GD-13): 0 | Number of female embryos (3 × 15-dose i.p. on GD-13): 24 (50.0) | Number of male embryos (3 × 15-dose i.p. on GD-13): 24 (50.0) | Exomphalos (3 × 15-dose i.p. on GD-13): 1 (2.1) | Eye open (3 × 15-dose i.p. on GD-13): 6 (12.5) | Kinky tail (3 × 15-dose i.p. on GD-13): 1 (2.1) | Left/right kidney hypo/descended (3 × 15-dose i.p. on GD-13): 2 (4.2) | Mandible hypoplasia (3 × 15-dose i.p. on GD-13): 3 (6.3) | Maxilla hypoplasia (3 × 15-dose i.p. on GD-13): 3 (6.3) | Microtia/low set microtia (3 × 15-dose i.p. on GD-13): 3 (6.3) | Undescended testis (3 × 15-dose i.p. on GD-13): 0 | Live fetus/litter (3 × 15-dose i.p. on GD-13): 6.857 (82.76) | Resorption/litter (3 × 15-dose i.p. on GD-13): 1.429 (17.24) | mean fetal weight in each litter, treatment groups vs controls (GD-8 and GD-13, all doses): not significantly different | mean placental weights, treated groups vs controls (GD-8 and GD-13, all doses): not significantly different | number of fetuses in each litter, between all study groups (GD-8 and GD-13, all doses): not significantly different | number of live fetuses, between all study groups (GD-8 and GD-13, all doses): not significantly different | resorption rate, between all the groups (GD-8 and GD-13, all doses): not significantly different | maternal toxicity (all groups, GD-8 and GD-13 treated animals): no sign of maternal toxicity | incidence of exencephaly and craniofacial malformations, exomphalos, microtia, open eye, palate, hydronephrosis, descended kidney, undescended testis, kinky tail (between any of the groups studied): no significant difference | average number of implantations and resorptions, control vs DL76-treated groups (early stages of gestation and organogenesis period): No significant alterations | maternal body weight vs control mice group (single 7.5, 15, 30 or 60 mg/kg i.p. or multiple doses 3 × 15 mg/kg i.p. on GD 8 or 13): failed to affect | incidence of gross morphological anomalies in treated fetuses vs control group (single- and multiple-dose groups given i.p.): not significantly different
